AC50 data for 14 compounds are collected here from ChEMBL document CHEMBL5291721, “A preclinical secondary pharmacology resource illuminates target-adverse drug reaction associations of marketed drugs” (Nat Commun, 2023).

One test concerns the target Histamine H3 receptor (Homo sapiens, UniProt Q9Y5N1).
Test [1] addresses T1, 5-hydroxytryptamine receptor 1A (Homo sapiens, UniProt P08908).
T1 sequence (P08908 whole entry): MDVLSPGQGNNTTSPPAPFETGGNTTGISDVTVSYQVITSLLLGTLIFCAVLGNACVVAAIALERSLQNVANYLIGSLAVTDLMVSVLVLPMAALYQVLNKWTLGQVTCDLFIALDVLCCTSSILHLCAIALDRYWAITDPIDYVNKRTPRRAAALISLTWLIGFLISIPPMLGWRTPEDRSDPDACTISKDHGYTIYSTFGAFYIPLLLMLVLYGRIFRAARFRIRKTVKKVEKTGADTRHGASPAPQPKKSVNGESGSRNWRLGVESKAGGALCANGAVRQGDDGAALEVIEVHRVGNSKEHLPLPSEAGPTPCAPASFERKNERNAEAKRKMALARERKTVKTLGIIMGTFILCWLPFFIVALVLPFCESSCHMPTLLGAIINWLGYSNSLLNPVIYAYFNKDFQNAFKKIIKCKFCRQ
It counts as functional, cell-based.

The target in test [2] is Beta-2 adrenergic receptor (Homo sapiens, UniProt P07550). It counts as functional, cell-based.
A further test concerns the target Histamine H2 receptor (Homo sapiens, UniProt P25021). Type of test: functional, cell-based.
The target in the next test is T2, Thromboxane A2 receptor (Homo sapiens, UniProt P21731).
T2 sequence (P21731 whole entry): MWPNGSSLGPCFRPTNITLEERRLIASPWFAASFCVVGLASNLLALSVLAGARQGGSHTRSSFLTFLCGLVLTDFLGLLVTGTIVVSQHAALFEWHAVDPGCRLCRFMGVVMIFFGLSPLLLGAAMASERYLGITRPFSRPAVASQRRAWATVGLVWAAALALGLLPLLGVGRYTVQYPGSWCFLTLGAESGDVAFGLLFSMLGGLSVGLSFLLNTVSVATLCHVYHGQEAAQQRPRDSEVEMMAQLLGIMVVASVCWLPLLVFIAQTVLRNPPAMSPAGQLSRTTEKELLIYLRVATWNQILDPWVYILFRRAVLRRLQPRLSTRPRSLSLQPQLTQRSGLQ

A further test deals with Mu-type opioid receptor (Homo sapiens, UniProt P35372).
Test [3] has as its target Gamma-aminobutyric acid receptor subunit alpha-1 (Rattus norvegicus, UniProt P62813).
For test [4], the target named is T3, Alpha-1A adrenergic receptor (Homo sapiens, UniProt P35348).
T3 sequence (P35348 whole entry): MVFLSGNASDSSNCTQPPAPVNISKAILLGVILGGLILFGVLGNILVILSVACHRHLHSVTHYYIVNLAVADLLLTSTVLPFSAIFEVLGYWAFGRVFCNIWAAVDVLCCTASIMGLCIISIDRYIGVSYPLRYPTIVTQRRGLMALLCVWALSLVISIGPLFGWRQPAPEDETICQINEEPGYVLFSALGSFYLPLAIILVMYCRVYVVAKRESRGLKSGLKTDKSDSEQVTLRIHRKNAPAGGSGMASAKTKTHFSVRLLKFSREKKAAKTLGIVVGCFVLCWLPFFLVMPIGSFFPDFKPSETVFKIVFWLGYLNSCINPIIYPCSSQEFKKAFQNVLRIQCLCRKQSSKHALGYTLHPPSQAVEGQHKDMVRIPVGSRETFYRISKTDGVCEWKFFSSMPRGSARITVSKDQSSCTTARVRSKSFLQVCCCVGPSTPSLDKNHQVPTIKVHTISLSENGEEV
Type of test: functional, cell-based.

Test [5] concerns the target T4, Muscarinic acetylcholine receptor M1 (Homo sapiens, UniProt P11229).
T4 sequence (P11229 whole entry): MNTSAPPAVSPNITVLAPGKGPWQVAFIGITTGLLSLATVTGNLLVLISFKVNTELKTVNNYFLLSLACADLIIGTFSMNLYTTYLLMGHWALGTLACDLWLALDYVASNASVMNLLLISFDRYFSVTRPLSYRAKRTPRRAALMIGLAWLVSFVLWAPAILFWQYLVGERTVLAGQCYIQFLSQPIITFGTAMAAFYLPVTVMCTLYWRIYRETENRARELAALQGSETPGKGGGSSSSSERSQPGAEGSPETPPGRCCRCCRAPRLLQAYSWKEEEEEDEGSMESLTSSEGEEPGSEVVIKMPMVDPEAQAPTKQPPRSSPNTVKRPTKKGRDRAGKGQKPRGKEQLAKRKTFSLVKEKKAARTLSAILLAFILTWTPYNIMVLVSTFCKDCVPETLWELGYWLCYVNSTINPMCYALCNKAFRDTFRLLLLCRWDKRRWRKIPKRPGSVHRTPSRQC
It counts as functional.

The target of test [6] is 5-hydroxytryptamine receptor 2A (Homo sapiens, UniProt P28223). Type of test: functional, cell-based.
For test [7], the target named is T5, Amine oxidase [flavin-containing] A (Homo sapiens, UniProt P21397).
T5 sequence (P21397 whole entry): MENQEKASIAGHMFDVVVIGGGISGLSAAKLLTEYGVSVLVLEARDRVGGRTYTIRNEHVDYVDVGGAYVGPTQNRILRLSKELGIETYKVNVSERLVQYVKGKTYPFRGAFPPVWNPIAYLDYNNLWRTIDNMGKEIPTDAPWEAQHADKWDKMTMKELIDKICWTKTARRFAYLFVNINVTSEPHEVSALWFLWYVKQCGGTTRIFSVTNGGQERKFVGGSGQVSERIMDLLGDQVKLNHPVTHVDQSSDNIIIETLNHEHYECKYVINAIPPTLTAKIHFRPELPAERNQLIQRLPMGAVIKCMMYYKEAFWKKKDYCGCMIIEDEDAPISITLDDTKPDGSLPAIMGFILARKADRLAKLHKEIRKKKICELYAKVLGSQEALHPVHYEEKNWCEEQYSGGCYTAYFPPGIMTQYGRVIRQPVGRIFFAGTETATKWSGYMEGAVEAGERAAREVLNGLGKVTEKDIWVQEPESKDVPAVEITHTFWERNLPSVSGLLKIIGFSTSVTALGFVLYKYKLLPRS
It counts as functional.

The target in test [8] is T3, Alpha-1A adrenergic receptor. Type of test: functional, cell-based. The source holds these as a separate data set.
Test [9] has the same target. Type of test: functional, cell-based. The source holds these as a separate data set.
Test [10] deals with T4, Muscarinic acetylcholine receptor M1. Type of test: functional, cell-based.
A further test concerns the target Acetylcholinesterase (Homo sapiens, UniProt P22303). Type of test: functional.
For test [11], the target named is Prostaglandin G/H synthase 1 (Homo sapiens, UniProt P23219). It counts as functional.

Structures are written as SMILES.

Usually AC50 stands for the midpoint of the concentration-response curve, whichever way the signal moves.
Also: assay procedure not described here.

Mu-type opioid receptor, sequence (P35372 whole entry): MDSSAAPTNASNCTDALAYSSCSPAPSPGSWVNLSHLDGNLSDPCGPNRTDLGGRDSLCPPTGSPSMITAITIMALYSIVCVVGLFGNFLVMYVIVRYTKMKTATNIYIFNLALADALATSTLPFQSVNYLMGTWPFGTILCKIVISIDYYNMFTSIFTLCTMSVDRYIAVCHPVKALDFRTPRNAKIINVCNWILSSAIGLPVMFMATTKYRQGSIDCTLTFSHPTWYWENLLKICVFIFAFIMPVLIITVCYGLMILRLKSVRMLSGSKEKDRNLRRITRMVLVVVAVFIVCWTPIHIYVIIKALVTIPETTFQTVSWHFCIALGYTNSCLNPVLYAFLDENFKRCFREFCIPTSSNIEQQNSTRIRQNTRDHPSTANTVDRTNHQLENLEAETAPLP
5-hydroxytryptamine receptor 2A, sequence (P28223 whole entry): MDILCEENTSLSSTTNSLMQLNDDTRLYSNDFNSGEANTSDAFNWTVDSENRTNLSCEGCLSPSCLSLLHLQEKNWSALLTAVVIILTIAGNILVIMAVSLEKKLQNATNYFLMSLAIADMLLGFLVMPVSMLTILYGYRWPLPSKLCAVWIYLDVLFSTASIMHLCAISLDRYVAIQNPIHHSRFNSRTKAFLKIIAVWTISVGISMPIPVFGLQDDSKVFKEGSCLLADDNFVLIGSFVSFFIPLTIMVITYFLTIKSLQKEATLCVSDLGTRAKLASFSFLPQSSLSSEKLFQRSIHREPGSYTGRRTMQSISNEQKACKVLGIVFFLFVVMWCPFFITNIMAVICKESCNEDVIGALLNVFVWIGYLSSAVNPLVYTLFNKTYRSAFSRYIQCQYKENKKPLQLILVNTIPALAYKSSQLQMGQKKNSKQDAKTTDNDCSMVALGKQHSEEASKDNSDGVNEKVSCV
Histamine H3 receptor, sequence (Q9Y5N1 whole entry): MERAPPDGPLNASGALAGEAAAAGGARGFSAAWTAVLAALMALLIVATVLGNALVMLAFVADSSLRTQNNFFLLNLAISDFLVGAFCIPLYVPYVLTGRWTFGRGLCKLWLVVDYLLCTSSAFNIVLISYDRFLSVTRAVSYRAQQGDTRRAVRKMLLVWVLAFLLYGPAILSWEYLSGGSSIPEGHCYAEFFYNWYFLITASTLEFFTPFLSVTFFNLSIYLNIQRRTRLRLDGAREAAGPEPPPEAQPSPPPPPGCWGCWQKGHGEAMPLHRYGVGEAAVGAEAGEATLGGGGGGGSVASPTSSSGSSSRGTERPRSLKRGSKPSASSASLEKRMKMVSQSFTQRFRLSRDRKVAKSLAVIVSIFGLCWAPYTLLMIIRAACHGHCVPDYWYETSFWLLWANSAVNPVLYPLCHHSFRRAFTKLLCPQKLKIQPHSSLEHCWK
Histamine H2 receptor, sequence (P25021 whole entry): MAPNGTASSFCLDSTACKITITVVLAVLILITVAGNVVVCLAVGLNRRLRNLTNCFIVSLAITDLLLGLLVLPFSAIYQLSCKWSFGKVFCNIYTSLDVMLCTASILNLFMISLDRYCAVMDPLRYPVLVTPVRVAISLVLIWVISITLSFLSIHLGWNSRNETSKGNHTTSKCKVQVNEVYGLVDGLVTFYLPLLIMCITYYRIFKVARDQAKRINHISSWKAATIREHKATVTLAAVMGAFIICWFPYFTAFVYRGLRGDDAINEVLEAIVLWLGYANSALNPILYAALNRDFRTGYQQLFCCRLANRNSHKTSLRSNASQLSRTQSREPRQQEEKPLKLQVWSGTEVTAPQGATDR
Gamma-aminobutyric acid receptor subunit alpha-1, sequence (P62813 whole entry): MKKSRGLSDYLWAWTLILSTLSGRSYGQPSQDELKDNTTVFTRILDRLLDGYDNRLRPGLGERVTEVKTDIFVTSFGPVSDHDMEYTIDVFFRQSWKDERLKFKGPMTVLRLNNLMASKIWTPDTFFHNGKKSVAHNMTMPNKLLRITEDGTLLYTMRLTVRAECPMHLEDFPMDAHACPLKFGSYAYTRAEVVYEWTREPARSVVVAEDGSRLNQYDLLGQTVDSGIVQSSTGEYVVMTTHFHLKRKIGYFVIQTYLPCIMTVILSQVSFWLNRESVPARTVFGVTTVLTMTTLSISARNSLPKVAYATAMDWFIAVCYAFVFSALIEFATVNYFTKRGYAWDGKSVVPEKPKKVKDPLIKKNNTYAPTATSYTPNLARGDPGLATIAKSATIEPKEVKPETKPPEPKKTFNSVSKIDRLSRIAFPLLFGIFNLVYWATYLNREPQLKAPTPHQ
Beta-2 adrenergic receptor, sequence (P07550 whole entry): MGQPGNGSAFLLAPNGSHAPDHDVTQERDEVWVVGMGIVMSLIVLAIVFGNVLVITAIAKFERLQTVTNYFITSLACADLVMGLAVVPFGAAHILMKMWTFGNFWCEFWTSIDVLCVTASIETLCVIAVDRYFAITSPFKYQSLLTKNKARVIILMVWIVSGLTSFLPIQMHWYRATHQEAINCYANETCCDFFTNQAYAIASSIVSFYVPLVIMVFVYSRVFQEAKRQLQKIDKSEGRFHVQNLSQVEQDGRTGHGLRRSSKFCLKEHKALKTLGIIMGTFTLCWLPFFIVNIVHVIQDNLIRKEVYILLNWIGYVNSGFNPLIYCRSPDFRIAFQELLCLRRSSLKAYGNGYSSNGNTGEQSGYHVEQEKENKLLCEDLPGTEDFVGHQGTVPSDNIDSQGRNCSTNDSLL
Acetylcholinesterase, sequence (P22303 whole entry): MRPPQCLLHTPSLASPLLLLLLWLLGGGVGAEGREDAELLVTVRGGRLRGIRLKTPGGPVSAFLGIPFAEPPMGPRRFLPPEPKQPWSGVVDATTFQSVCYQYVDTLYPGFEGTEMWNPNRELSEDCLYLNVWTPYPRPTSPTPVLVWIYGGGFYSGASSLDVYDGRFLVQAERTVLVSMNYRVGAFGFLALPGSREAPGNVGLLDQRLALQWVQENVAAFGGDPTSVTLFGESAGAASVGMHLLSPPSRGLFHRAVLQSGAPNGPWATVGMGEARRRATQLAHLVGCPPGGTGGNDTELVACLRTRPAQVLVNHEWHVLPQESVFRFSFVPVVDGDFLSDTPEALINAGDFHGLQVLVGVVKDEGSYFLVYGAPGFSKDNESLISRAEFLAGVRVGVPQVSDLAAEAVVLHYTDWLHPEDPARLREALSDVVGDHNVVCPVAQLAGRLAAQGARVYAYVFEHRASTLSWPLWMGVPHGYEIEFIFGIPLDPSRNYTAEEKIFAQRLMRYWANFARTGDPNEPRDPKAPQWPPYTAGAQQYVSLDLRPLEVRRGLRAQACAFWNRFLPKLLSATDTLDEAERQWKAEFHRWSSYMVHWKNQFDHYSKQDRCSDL
Prostaglandin G/H synthase 1, sequence (P23219 whole entry): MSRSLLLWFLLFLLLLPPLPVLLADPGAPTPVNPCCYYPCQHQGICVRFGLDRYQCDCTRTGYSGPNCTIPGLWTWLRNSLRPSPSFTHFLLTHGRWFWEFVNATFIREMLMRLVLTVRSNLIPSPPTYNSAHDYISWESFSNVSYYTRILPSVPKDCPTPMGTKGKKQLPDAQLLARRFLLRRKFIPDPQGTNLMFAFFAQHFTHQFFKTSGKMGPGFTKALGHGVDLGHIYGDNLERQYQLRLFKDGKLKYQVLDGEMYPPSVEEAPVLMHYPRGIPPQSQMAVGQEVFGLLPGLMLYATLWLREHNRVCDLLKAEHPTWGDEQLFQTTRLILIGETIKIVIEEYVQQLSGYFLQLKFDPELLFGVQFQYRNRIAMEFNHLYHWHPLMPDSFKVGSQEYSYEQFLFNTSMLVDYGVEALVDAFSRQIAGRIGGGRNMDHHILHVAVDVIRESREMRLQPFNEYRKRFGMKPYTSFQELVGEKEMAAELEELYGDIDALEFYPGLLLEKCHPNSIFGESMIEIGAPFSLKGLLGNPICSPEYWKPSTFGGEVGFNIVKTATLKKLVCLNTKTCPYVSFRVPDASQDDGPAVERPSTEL

Take `CCOC(=O)[C@H](CCc1ccccc1)N[C@@H](C)C(=O)N1[C@H](C(=O)O)C[C@@H]2CCC[C@@H]21`: the AC50 on Histamine H3 receptor was over 10 µM; in test [1] it was over 10 µM; in test [2], over 30 µM; at Histamine H2 receptor it was over 10 µM; on Thromboxane A2 receptor, over 30 µM; at Mu-type opioid receptor, over 30 µM. Moreover, the AC50 in test [3] is over 10 µM; in test [4], over 30 µM.

As to `Nc1nc(NC2CC2)c2ncn([C@H]3C=C[C@@H](CO)C3)c2n1` [ABACAVIR], the AC50 (at Histamine H3 receptor; in test [5]; in test [2]; on Histamine H2 receptor; at Thromboxane A2 receptor; in [6]) was over 30 µM throughout. For the same compound, the AC50 in test [3] and in test [4] was over 30 µM each time.

As for `C=CCc1ccccc1OCC(O)CNC(C)C` (configuration not stated) [ALPRENOLOL], the AC50 in [7] is over 0.3 µM; at Histamine H3 receptor, over 30 µM; in [1], 4.8 µM; in test [5], over 30 µM; in test [8], over 0.3 µM; in test [9], over 0.3 µM. Also, the AC50 at Histamine H2 receptor is over 30 µM; on Thromboxane A2 receptor, over 30 µM; in test [10] it was over 0.3 µM; in test [6] it was over 30 µM; on Acetylcholinesterase, over 0.3 µM; in test [3], over 30 µM. Moreover, the half-maximal activity concentration (AC50) in [4] is over 30 µM; in [11], over 0.3 µM.

Regarding `Cc1ccc(-c2cc(C(F)(F)F)nn2-c2ccc(S(N)(=O)=O)cc2)cc1` [CELECOXIB], the AC50 at Histamine H3 receptor is over 10 µM; in [1], over 10 µM; in test [2], over 30 µM; at Histamine H2 receptor, over 10 µM; at Thromboxane A2 receptor, over 10 µM; on Mu-type opioid receptor, over 30 µM. In addition, the AC50 in test [3] was over 10 µM; in test [4], over 30 µM.

Take `CN(C)CCC(c1ccc(Cl)cc1)c1ccccn1` (configuration not stated) [CHLORPHENIRAMINE]: the AC50 at Histamine H3 receptor is 11 µM; in test [1], over 10 µM; in test [2], over 30 µM; at Histamine H2 receptor, over 10 µM; at Thromboxane A2 receptor, over 30 µM; on Mu-type opioid receptor it was over 10 µM. For the same compound, the AC50 in test [3] was over 10 µM; in [4] it was over 30 µM.

In the case of `C[C@]12CCC(=O)C=C1CC[C@@H]1[C@@H]2[C@@H](O)C[C@@]2(C)[C@H]1CC[C@]2(O)C(=O)CO` [HYDROCORTISONE], the AC50 at Histamine H3 receptor is over 10 µM; in test [1], over 10 µM; in [2], over 30 µM; on Histamine H2 receptor, over 10 µM; at Thromboxane A2 receptor it was over 30 µM; on Mu-type opioid receptor, over 30 µM. The AC50 in [3] is over 10 µM; in test [4], over 30 µM.

For the compound `c1ccc([C@H]2CN3CCSC3=N2)cc1` [LEVAMISOLE], the AC50 (at Histamine H3 receptor; in test [1]; in test [2]; at Histamine H2 receptor; on Thromboxane A2 receptor; at Mu-type opioid receptor) was over 30 µM throughout. Moreover, the half-maximal activity concentration (AC50) in [3] and in [4] was over 30 µM throughout.

Turning to `C[C@@H](O)[C@H]1C(=O)N2C(C(=O)O)=C(S[C@@H]3CN[C@H](C(=O)N(C)C)C3)[C@H](C)[C@H]12` [MEROPENEM], the AC50 was over 300 µM at Histamine H3 receptor; over 300 µM in test [1]; over 300 µM in test [2]; over 10 µM on Histamine H2 receptor; over 10 µM on Thromboxane A2 receptor; over 300 µM on Mu-type opioid receptor. For the same compound, the AC50 is over 10 µM in [3] and over 300 µM in test [4].

For the compound `CC1(C)NC(=O)N(c2ccc([N+](=O)[O-])c(C(F)(F)F)c2)C1=O` [NILUTAMIDE], the AC50 in [7] was over 30 µM; at Histamine H3 receptor, over 30 µM; in test [1], over 30 µM; in test [5] it was over 30 µM; in [8], over 3 µM; in test [9] it was over 30 µM. The AC50 was over 30 µM at Histamine H2 receptor; over 30 µM at Thromboxane A2 receptor; over 3 µM in [10]; over 30 µM in test [6]; over 30 µM at Acetylcholinesterase; over 30 µM in test [3]. Also, in test [11], the AC50 is over 30 µM.

Regarding `Cc1nc([N+](=O)[O-])cn1-c1ccc([N+](=O)[O-])cc1` [NITREFAZOLE], the AC50 (on Histamine H3 receptor; in [5]; in test [2]; at Histamine H2 receptor; on Thromboxane A2 receptor; in test [6]) was over 30 µM throughout. Moreover, the half-maximal activity concentration (AC50) in [3] and in test [4] was over 30 µM throughout.

As to `CCCN1C[C@H](CSC)C[C@@H]2c3cccc4[nH]cc(c34)C[C@H]21` [PERGOLIDE], the AC50 on Histamine H3 receptor was over 30 µM; in test [2] it was over 30 µM; on Histamine H2 receptor, 0.95 µM; on Thromboxane A2 receptor, over 30 µM; on Mu-type opioid receptor, over 30 µM; in test [3], over 10 µM. The compound also showed an AC50 in [4] of 0.33 µM.

Take `C1CCC(C(CC2CCCCN2)C2CCCCC2)CC1` (configuration not stated) [PERHEXILINE]: the AC50 on Histamine H3 receptor was over 30 µM; in [1], over 3 µM; in [2], over 30 µM; at Mu-type opioid receptor, 16 µM; in [4], over 10 µM.

Turning to `Cc1c(C(=O)NN2CCCCC2)nn(-c2ccc(Cl)cc2Cl)c1-c1ccc(Cl)cc1` [RIMONABANT], the AC50 at Histamine H3 receptor is over 30 µM; in [1], over 30 µM; in test [5], over 30 µM; in test [2], over 30 µM; at Histamine H2 receptor, over 10 µM; at Thromboxane A2 receptor, 18.6 µM. Besides, the values for the AC50 in test [6], in test [3] and in test [4] were 3.7 µM, over 10 µM and over 30 µM, respectively.

For `N[C@@H]1[C@H]2CN(c3nc4c(cc3F)c(=O)c(C(=O)O)cn4-c3ccc(F)cc3F)C[C@@H]12` [TROVAFLOXACIN], the AC50 (on Histamine H3 receptor; in test [1]; in test [2]; at Mu-type opioid receptor; in [4]) was over 30 µM throughout.
